In patent US10242153B2, “Method for determining the risk profile of neoplastic tissue” (NOVAZOI THERANOSTICS, priority 2014, dated 2019):

Test system: 231 cells
Assay: Centrosome amplification (CA) by microscopy (γ-tubulin/centrin-2 foci), 231 cells
Format: cell-based, human
Method: Consequently, CA was assessed in cultures treated with different concentrations of declustering drugs for 6, 12, 18, or 24 h and untreated controls via microscopy. Centrosomes were identified by γ-tubulin and centrin-2 colocalization at discrete foci. […] The peak percent CA detected over 24 h is shown in FIG. 13 (only statistically significant (P<0.05) increases over control values are represented in the Figures). To better understand the “potency” of drug-induced CA with time, the average fold change in CA over controls over 24 h was assessed (FIG. 12, panel A), whereby the extent of CA across time points (i.e., 6, 12, 18, and 24 hr) was averaged and then divided by the extent of CA in control (i.e., 0 hr). All of the drugs at least doubled the peak extent of CA in all cell lines tested (FIG. 12, panel A), although the final extent of CA could be small or large in magnitude depending on the initial centrosomal burden as shown in FIG. 11. […] The peak extent in interphase HeLa cells was somewhat less at 30.7% and 48.1% for 10 and 25 μM RBN, respectively (FIG. 13, panel A). For Nos and BN, there was no major difference in CA levels in interphase versus mitotic cells.

Substance: reduced-9-bromonoscapine [RBN]
- change of peak CA extent over controls (231 cells, 25 μM): slightly more than doubled
- final extent of CA (231 cells, 25 μM, cell cycle stage not stated): around 90%
- maximum extent of CA (interphase 231 cells, 10 μM): 31%
- maximum extent of CA (interphase 231 cells, 25 μM): 87%
- increase in CA over controls (mitotic 231 cells, 10 μM): ~2.5 fold
- maximum extent of CA (mitotic 231 cells, 10 μM): 56%
- increase in CA over controls (mitotic 231 cells, 25 μM): ~2.0 fold
- maximum extent of CA (mitotic 231 cells, 25 μM): 96%
